From US9586880B2, “Small molecule inhibitors of necroptosis” (President and Fellows of Harvard College, priority 2008, dated 2017)

Legend:
[1] = tested on: FADD-deficient variant of human Jurkat T cells; experiment: TNF-α induced necroptosis inhibition, ATP-based viability assessment; assay type: cell-based; settings: 10 ng/mL human TNF-α, 24 hours, CellTiter-Glo viability; for EC50: Jurkat
Procedure: (§1) Evaluation of necroptosis inhibitory activity was performed using a FADD-deficient variant of human Jurkat T cells or with L929 cells treated with TNF-α as previously described (Degterev et al., Nat. Chem. Biol. 1:112 (2005) and Jagtap et al., J. Med. Chem. 50: 1886 (2007)). Utilizing these conditions the cells efficiently underwent necroptosis. For EC50 value determinations, cells were treated with 10 ng/mL of human TNF-α in the presence of increasing concentration of test compounds for 24 hours followed by ATP-based viability assessment.
(§2) ATP-based viability assessment: Briefly, necroptosis activity was performed using a FADD-deficient variant of human Jurkat T cells or L929 cells treated with TNF-α. For EC50 value determinations, cells (500,000 cells/mL, 100 μL per well in a 96-well plate) were treated with 10 ng/mL of human TNF-α in the presence of increasing concentration of test compounds for 24 hours at 37° C. in a humidified incubator with 5% CO2 followed by ATP-based viability assessment. Stock solutions (30 mM) in DMSO were initially prepared and then diluted with DMSO to give testing solutions, which were added to each test well. The final DMSO concentration was 0.5%. Eleven compound test concentrations (0.030-100 μM) were used. Each concentration was done in duplicate.
(§3) Cell viability assessments were performed using a commercial luminescent ATP-based assay kit (CellTiter-Glo, Promega, Madison, Wis.) according to the manufacturer's instructions. Briefly, 40 μL of the cell lysis/ATP detection reagent was added to each well. Plates were incubated on a rocking platform for 10 minutes at room temperature and luminescence was measured using a Wallac Victor 3 plate-reader (Perkin Elmer, Wellesley, Mass.). Cell viability was expressed as a ratio of the signal in the well treated with TNF-α and compound to the signal in the well treated with compound alone. This was done to account for nonspecific toxicity, which in most cases was <10%. EC50 values were calculated using nonlinear regression analysis of sigmoid dose-response (variable slope) curves from plots of log [I] verses viability values.

L929 cells = experiment: as above; assay type: cell-based; settings: 10 ng/mL human TNF-α, 24 hours, CellTiter-Glo viability; for EC50: Mus musculus, L929
Procedure: as §1, §2, §3

| Compound | EC50 [1] [nM] | EC50 Fadd −/− Jurkat [1] | further results |
| --- | --- | --- | --- |
| COc1cc(C2CC(=O)NC(SCC(=O)Nc3nccs3)=C2C#N)cc(OC)c1OC (stereo not drawn) [(1)] | 477 | – | EC50 (L929 cells): 197 nM |
| N#CC1=C(SCC(=O)Nc2nccs2)NC(=O)CC1c1ccccc1F (stereo not drawn) [(2)] | 769 | – | – |
| N#CC1=C(SCC(=O)Nc2nccs2)NC(=O)CC1c1ccc(Cl)cc1 (stereo not drawn) [(3)] | 823 | – | – |
| COc1ccc(C2CC(=O)NC(SCC(=O)Nc3nccs3)=C2C#N)cc1OC (stereo not drawn) [(4)] | 354 | – | – |
| COC(=O)C1C(=O)NC(SCC(=O)Nc2nccs2)=C(C#N)C1c1ccc(Cl)cc1 (stereo not drawn) [(5)] | 25000 | – | – |
| N#CC1=C(SCC(=O)Nc2nccs2)NC(=O)CC1c1ccccc1 (stereo not drawn) [(6)] | – | Partial activity | – |
| COc1ccccc1C1CC(=O)NC(SCC(=O)Nc2nccs2)=C1C#N (stereo not drawn) [(7)] | 2380 | – | – |
| N#CC1=C(SCC(N)=O)NC(=O)CC1c1ccccc1 (stereo not drawn) [(8)] | – | inactive | – |
| COc1ccc(NC(=O)CSC2=C(C#N)C(c3cc(OC)c(OC)c(OC)c3)CC(=O)N2)cc1 (stereo not drawn) [(9)] | – | inactive | – |
| COc1cc(C2CC(=O)NC(SCC(=O)Nc3ccccc3)=C2C#N)cc(OC)c1OC (stereo not drawn) [(10)] | – | inactive | – |
| COc1cc(C2CC(=O)NC(SCC(=O)Nc3ccc(F)cc3)=C2C#N)cc(OC)c1OC (stereo not drawn) [(11)] | – | inactive | – |
| COc1cc(C2CC(=O)NC(SCC(=O)Nc3c(C)cc(C)cc3C)=C2C#N)cc(OC)c1OC (stereo not drawn) [(12)] | – | inactive | – |
| O=C(Nc1ccccc1)N1N=CCC1c1ccccc1 (stereo not drawn) [(17)] | – | inconclusive | – |
| CCN1CCN(CC(=O)N2N=CCC2c2ccccc2)CC1 (stereo not drawn) [(18)] | 410 | – | – |
| Cc1ccc(C(=O)C2=NNCC2c2ccccc2)cc1 (stereo not drawn) [(19)] | 369 | – | – |
| O=C(CSc1ccc(Cl)cc1)N1N=CCC1c1ccccc1 (stereo not drawn) [(20)] | 3210 | – | – |
| O=C(CSc1nc2ccccc2s1)N1N=CCC1c1ccccc1 (stereo not drawn) [(21)] | 1560 | – | – |
| Clc1ccc(-c2cc[nH]n2)cc1 [(22)] | – | Inactive | – |
| CCOC(=O)C1NN=C(C(=O)c2ccccc2)C1c1ccccc1 (stereo not drawn) [(23)] | – | Inactive | – |
| CCOC(=O)C1=NNC(C(=O)c2ccccc2)C1c1ccc(Cl)cc1 (stereo not drawn) [(24)] | – | Inactive | – |
| Cn1ccnc1SCC(=O)N1N=CCC1c1ccccc1 (stereo not drawn) [(25)] | – | Inactive | – |
| Cc1ccc2nc(SCC(=O)N3N=CCC3c3ccccc3)nc(C)c2c1 (stereo not drawn) [(26)] | – | Inactive | – |
| C#CC1(O)c2ccccc2C=Cc2ccccc21 [(28)] | 2980 | – | – |

| Compound | EC50 [1] [nM] | EC50 Fadd −/− Jurkat [1] | further results |
| --- | --- | --- | --- |
| C#CC(O)(c1ccccc1)c1ccccc1 [(29)] | 31800 | – | – |
| CCC1(O)c2ccccc2CCc2ccccc21 [(30)] | 5830 | – | – |
| C=CC1(O)c2ccccc2CCc2ccccc21 [(31)] | 2950 | – | – |
| C#CC1(O)c2ccccc2CCc2ccc(F)cc21 (stereo not drawn) [(32)] | 2000 | – | – |
| C#CC1(O)c2ccccc2CCc2c(F)cccc21 (stereo not drawn) [(33)] | 4790 | – | – |
| C#CC1(O)CCCCCC1 [(34)] | – | Inactive | – |
| C#CC1(O)c2ccccc2-c2ccccc21 [(35)] | – | Inactive | – |
| C#CC1(OC)c2ccccc2CCc2ccccc21 [(36)] | – | Inactive | – |
| C=C(Br)C1(Br)c2ccccc2CCc2ccccc21 [(37)] | – | Inactive | – |
| C=C(Cl)C1(Cl)c2ccccc2CCc2ccccc21 [(38)] | – | Inactive | – |
| OC1(C#CBr)c2ccccc2CCc2ccccc21 [(39)] | – | Inactive | – |
| CC#CC1(O)c2ccccc2CCc2ccccc21 [(40)] | – | Inactive | – |
| C#CC1(O)c2ccccc2CCc2c1ccc1ccccc21 (stereo not drawn) [(41)] | – | Inactive | – |
| C#CC1(O)c2cc(I)ccc2CCc2ccc(I)cc21 [(42)] | – | Inactive | – |
| C#CC1(O)c2cc([N+](=O)[O-])ccc2CCc2ccc([N+](=O)[O-])cc21 [(43)] | – | Inactive | – |
| C#CC1(O)c2ccccc2CCc2ccc(Br)cc21 (stereo not drawn) [(44)] | – | Inactive | – |
| C#CC1(O)c2ccccc2CCc2ccc(Cl)cc21 (stereo not drawn) [(45)] | – | Inactive | – |
| C#CC1(O)c2ccccc2CCc2ccc(C)cc21 (stereo not drawn) [(46)] | – | Inactive | – |
| CC(C)(O)C#CC1(O)c2ccccc2CCc2ccccc21 [(47)] | – | Inactive | – |
| Cc1sc2ncn(Cc3ccccc3)c(=O)c2c1C [(49)] | 3800 | – | – |
| O=c1c2c3c(sc2ncn1Cc1cccc2cccnc12)CCC3 [(50)] | > 30000 | – | – |
| COc1ccc(F)cc1Cn1cnc2sc3c(c2c1=O)CCC3 [(51)] | 10900 | – | – |
| COc1ccc(Cn2cnc3sc4c(c3c2=O)CCC4)cc1F [(52)] | 3050 | – | – |

| Compound | EC50 [1] [nM] | EC50 Fadd −/− Jurkat [1] | further results |
| --- | --- | --- | --- |
| O=c1c2c3c(sc2ncn1Cc1cccc2ccccc12)CCC3 [(53)] | > 30000 | – | – |
| N#Cc1ccc(Cn2cnc3sc4c(c3c2=O)CCC4)cc1 [(54)] | 861 | – | – |
| O=c1cc(Cn2cnc3sc4c(c3c2=O)CCC4)c2ccccc2[nH]1 [(55)] | > 30000 | – | – |
| O=c1c2ccccc2ncn1Cc1ccc(Cl)cc1 [(56)] | > 30000 | – | – |
| O=c1c2c3c(sc2ncn1Cc1c(Cl)cccc1Cl)CCC3 [(57)] | 936 | – | – |
| CCSCC(=O)Nc1ccc(F)cc1 [(64)] | 14100 | – | EC50 L929 (L929 cells): Inactive |
| Cc1ccc(Cn2ncc3ccccc32)cc1 [(65)] | 3620 | – | EC50 L929 (L929 cells): Inactive |
| Cc1ccc(CN(C)C(=O)C2CCCCC2)o1 [(66)] | 2620 | – | EC50 (L929 cells): 47100 nM |
| CNC(Cc1ccccc1)=C1C(=O)CC(C)(C)CC1=O [(67)] | 2240 | – | EC50 (L929 cells): 10000 nM |
| CNS(=O)(=O)c1cccc(C(=O)OCC(=O)N2CCCc3ccccc32)c1 [(68)] | 1630 | – | EC50 L929 (L929 cells): Inactive |
| O=C(NCc1cccs1)C1CCCCC1 [(69)] | 7720 | – | EC50 L929 (L929 cells): Inactive |
| Cc1s/c(=N\C(=O)C2=NNC(=O)CC2)[nH]c1-c1ccc(F)cc1 [(70)] | 908 | – | EC50 L929 (L929 cells): Inactive |
| CC(C)(C)OC(=O)Nc1ccc(-c2cc[nH]n2)cc1 [Compound (13)] | 5380 | – | EC50 (L929 cells): 890 nM |
| O=C(N1N=CCC1c1ccccc1)C12CC3CC(CC(C3)C1)C2 (stereo not drawn) [Compound (14)] | 410 | – | EC50 (L929 cells): 4200 nM |
| O=C(C1=NNCC1c1ccccc1)c1ccccc1 (stereo not drawn) [Compound (15)] | 369 | – | EC50 (L929 cells): 4020 nM |
| O=C(CSc1nnnn1-c1ccccc1)N1N=CCC1c1ccccc1 (stereo not drawn) [Compound (16)] | 629 | – | EC50 (L929 cells): 73000 nM |
| C#CC1(O)c2ccccc2CCc2ccccc21 [Compound (27)] | 3230 | – | EC50 (L929 cells): 659 nM |
| O=c1c2c3c(sc2ncn1Cc1ccccc1)CCC3 [Compound (48)] | 216 | – | EC50 (L929 cells): 8660 nM |
| CCN(CC)S(=O)(=O)c1ccc(C(=O)/N=c2\[nH]ccs2)cc1 [Compound (58)] | 8960 | – | EC50 (L929 cells): 1110 nM |
| O=C1NC(Cc2c[nH]c3ccccc23)C(=O)N1Cc1ccc(Cl)cc1 (stereo not drawn) [Compound (59)] | 343 | – | EC50 (L929 cells): 7460 nM |
| O=C(C1COc2ccccc2O1)N1CCc2ccccc21 (stereo not drawn) [Compound (60)] | 629 | – | EC50 (L929 cells): 23000 nM |
| O=C(COc1ccccc1)N1CCc2ccccc21 [Compound (61)] | – | Inactive | – |
| c1ccc(C2CC3CC4(CCCC4)N2O3)cc1 (stereo not drawn) [Compound (62)] | 668 | – | EC50 (L929 cells): 10100 nM |
